What was measured:
wheat seedlings = details: 15000 ppm Prussian blue; 4.5 cm in its absence
From the text: Ten wheat seeds were germinated in petri dishes containing approximately 50 g of grit sand. Each dish was moistened with plant nutrient solution in the presence or absence of 15000 ppm metallocyanide Prussian blue.

maize inbred line Mo17 = assay: Shoot length of Mo17 after soil treatments and T22 seed treatment, Arkport sandy loam field soil; format: in vivo; details: no seed treatment, soil drenched with mefenoxam, seven days after planting
Method: Ten-day assays were conducted in larger boxes (5×11×11 cm). Four or five seeds, either treated or not treated with T22, were planted in each box and plants were grown for various lengths of time with 12 hr diurnal fluorescent lighting and were watered as needed. In some experiments, soils were autoclaved to examine maize growth responses in the absence of natural soil pathogens. In addition, some soils were drenched with mefenoxam ((R)-2-[2,6-dimethylphenyl)-methoxyacetylamino]-propionic acid methyl ester]; Subdue MAXX, Novartis, Research Triangle, NC) according to the manufacturer's directions.

Compound | Mean root length of the wheat seedlings (wheat seedlings) [cm] | Shoot length (maize inbred line Mo17) [ab xy mm]
[C-]#N.[C-]#N.[C-]#N.[C-]#N.[C-]#N.[C-]#N.[C-]#N.[C-]#N.[C-]#N.[C-]#N.[C-]#N.[C-]#N.[C-]#N.[C-]#N.[C-]#N.[C-]#N.[C-]#N.[C-]#N.[Fe+2].[Fe+2].[Fe+2].[Fe+3].[Fe+3].[Fe+3].[Fe+3] [Prussian blue, Fe4 [Fe(CN)6]3] | 2.0 | –
COCC(=O)N(c1c(C)cccc1C)[C@H](C)C(=O)OC [mefenoxam] | – | 63

— patent publication US20040261578A1, “Stable self-organizing plant-organism systems for remediating polluted soils and waters” (priority 2003, published 2004)
